{"source": "patent US6399590B2", "about": "“Phosphoglycolipid and methods for its use” (Corixa Corporation, priority 1998, dated 2002)", "key": {"[1]": {"test_system": "Adult mongrel dogs, left anterior descending coronary artery (LAD) occlusion/reperfusion", "assay": "Infarct size in the dog, 60 min LAD occlusion and 3 h reperfusion", "assay_type": "in vivo", "conditions": "L34 35 μg/kg 24 h before occlusion + aminoguanidine (AG) 30 mg/kg s.c. 60 min before occlusion; mean ± SEM; 30 mg/kg", "description": "Adult mongrel dogs of either sex, weighing 19.0-30.0 kg were fasted overnight, anaesthetized with intravenous sodium barbital (200 mg/kg) and sodium pentobarbital (15 mg/kg), and ventilated with room air supplemented with 100% oxygen at an end expiratory pressure of 5-7 cm H2O to prevent atelectasis. Arterial blood pH PO2 and PCO2 were monitored at selected intervals by an automatic blood gas system and maintained within a normal physiological range (pH 7.35-7.45, PO2 10.6-16.0 kPa, PCO2 3,3-4.7 kPa) by adjusting the respiratory rate and oxygen flow and by an infusion of 1.5% sodium bicarbonate when necessary. Body temperature was maintained at 38±1° C. by using a heating pad.\nA double pressure-transducer-tipped catheter was inserted into the aorta and left ventricle via the left carotid artery for measurements of aortic and left ventricular pressure. Left ventricular dP/dt was determined by electronic differentiation of the left ventricular pressure pulse.\nA left thoracotomy was performed at the fifth intercostal space. The lung was retracted, the pericardium incised, and the heart suspended in a cradle. A 10-15 mm segment of the left anterior descending coronary artery (LAD) was dissected from surrounding tissue. […]\nRegional myocardial blood flow was measured by the radioactive microsphere technique. […]"}, "[2]": {"test_system": "canine model of repetitive transient regional ischemia", "assay": "Myocardial stunning in dogs, repetitive transient regional ischemia", "assay_type": "in vivo, dog", "description": "The compound of the subject invention provided both an acute and delayed protective effect against cardiac stunning in dogs. Pretreatment of dogs with the compound of the subject invention 10 minutes and 24 hours prior to ischemia produced significant improvement in the recovery of regional segment shortening (%SS) in the ischemic-reperfused myocardium of anesthetized dogs subjected to a multiple ischemia/reperfusion stunning protocol. Dogs were subjected to five 5-minute periods of coronary artery occlusion interspersed with 10 minute periods of reperfusion and finally followed by 2 hours of reperfusion. Regional systolic shortening in the subendocardium of the ischemic area was determined by sonomicrometry by placing a set of piezoelectric crystals in the subendocardium approximately 10-15 mm apart. Regional myocardial blood flow was determined by the radioactive microsphere technique during the first 5 min occlusion period and at the end of 2 h of reperfusion. Hemodynamics and blood gases were also measured at various times throughout the experiment. There was no significant differences between the control and pretreated groups in body weight, left ventricular weight, area at risk weight or the area at risk as a % of the left ventricle. […]"}, "[3]": {"test_system": "TNF-α secretion by THP-1 cells", "assay": "TNF-α secretion in THP-1 cells (ELISA)", "assay_type": "cell-based, human", "conditions": "any concentration between 1 ng/ml and 10 μg/ml; supernatants at 4, 16 and 24 hours", "description": "(§1) The human myelomonocytic cell line THP-1 is commonly used for the analysis of the proinflammatory status of various compounds. THP-1 cells (American Type Culture Collections Cat. No. 202-TIB) were grown in RPMI 1640, 10% heat inactivated fetal bovine serum (FBS) and […] β-mercaptoethanol to a cell density of between 4×10^5/ml and 7×10^5/ml. Cells were removed from culture and resuspended at 1×10^6 cells/ml in RPMI 1640 containing 5% fetal bovine serum. Resuspended cells were then pipetted into sterile, disposable polystyrene 150×25 mm petri dishes and treated with the natural maturational agent 1α, 25-dihyroxyvitamin D3 at 1×10^−7 M between 24 and 72 hours depending on the degree of maturation desired. These maturationally “pretreated” cells were then washed 3× in RPMI 1640 containing more than 2% but less than 10% fetal bovine serum. After the third wash cells were resuspended in RPMI 1640 containing 5% FBS plus 2% human AB sera (Irvine Scientific) at 5×10^5 cells/ml and transferred at 2 ml per well in a tissue culture grade, flat bottom polystyrene 24 well plate. […] Cytokine concentration in the THP-1 culture supernatants were quantified using standard human cytokine ELISA kits from R&D Laboratories. […]"}, "[4]": {"test_system": "IL-8 secretion by THP-1 cells", "assay": "IL-8 secretion in THP-1 cells (ELISA)", "assay_type": "cell-based, human", "conditions": "any concentration between 1 ng/ml and 10 μg/ml; supernatants at 4, 16 and 24 hours", "description": "as §1"}}}
{"smiles": "CCCCCCCCCCCCCCCCCC(=O)O[C@H](CCCCCCCCCCC)CC(=O)N[C@H]1[C@H](OC[C@H]2OC(O)[C@H](NC(=O)C[C@@H](CCCCCCCCCCC)OC(=O)CCCCCCCCCCCCCCC)[C@@H](O)[C@@H]2O)O[C@H](CO)[C@@H](OP(=O)(O)O)[C@@H]1OC(=O)C[C@@H](CCCCCCCCCCC)OC(=O)CCCCCCCCCCCCC", "note": "(stereo partly drawn) [L34, 2-Deoxy-6-O-[2-deoxy-4-O-phosphono-3-O-[(R)-3-tetradecanoyloxytetradecanoyl]-2-[(R)-3-octadecanoyloxytetradecanoylamino]-β-D-glucopyranosyl]-2-[(R)-3-hexadecanoyloxytetradecanoylamino]-D-glucopyranose]", "values": [{"measurement": "IS/AAR(%) (infarct size / area at risk)", "setting": "[1]", "value": "25.2±2.7", "unit": "%"}, {"measurement": "recovery of regional wall motion (%SS) vs control group", "setting": "[2]; 24 h pretreatment, after 1st and 4th occlusion and all times of final 2 h reperfusion, FIG. 6", "value": "significantly greater recovery of regional wall motion (%SS)"}, {"measurement": "recovery of regional wall motion (%SS) vs control group", "setting": "[2]; pretreatment 10 min prior to first occlusion, after 1st, 2nd, 4th occlusion and all times of final 2 h reperfusion, FIG. 5", "value": "significantly greater recovery of regional wall motion (%SS)"}, {"measurement": "TNF-α secretion", "setting": "[3]", "value": "did not induce detectable"}, {"measurement": "IL-8 secretion", "setting": "[4]", "value": "did not induce detectable"}]}
